# Source: PMC11061149, “Protein mimetic 2D FAST rescues alpha synuclein aggregation mediated early and post disease Parkinson’s phenotypes” (Nature Communications, 2024)
# Values joined by “and” are separate entries in the source; they are usually repeats but may differ in a detail not shown here. Equal values may be shown once.
# System: UA196 worms
# Test: Motility assay of UA196 worms in the presence of dopamine and NS163
# Format: in vivo, C. elegans
# Details: for Motility of worms, UA196+Dopamine: individual trials
# Protocol: This motility assay was performed exactly as the previous assay with slight adjustment in the preparation of the plates for the treatment of UA196 worms. For this assay, the only difference is the 24 well plates were prepared with 2 mM dopamine (referred to as PLATE 5) and both 2 mM dopamine and 50 µM NS163 (referred to as PLATE 6). To prepare PLATE 5, the NGM media containing 75 µM FUDR was autoclaved and poured in NGM plates (2 mL total liquid). After 12 h, the NGM plates were seeded with 350 µL of OP50 (with OD = 0.5 at 600 nm) at 20 °C. After 12 h, 2 mM dopamine dissolved in M9 buffer (total volume = 300 µL) was spotted atop the NGM plates at 20 °C. To prepare PLATE 6, the NGM media containing 75 µM FUDR was autoclaved and poured in NGM plates (2 mL total liquid). After 12 h, the NGM plates were seeded with 350 µL of OP50 (with OD = 0.5 at 600 nm) at 20 °C. After 12 h, NS163 (50 µM, stock conc. = […] in DMSO) and dopamine (2 mM in M9 buffer) were dissolved in M9 buffer (total volume = 300 µL) and were spotted atop the NGM plates at 20 °C. The NGM plates treated with dopamine and NS163 and dopamine were placed in sterile laminar flow hood at 20 °C for 1 h. The NGM plates treated with dopamine and NS163 and dopamine were prepared and used within 24 h.
# There were six conditions for this experiment: (1) N2 worms, (2) N2 worms treated with 2 mM dopamine, (3) UA196 worms, (4) UA196 worms treated with 2 mM dopamine, (5) UA196 worms treated with 50 µM NS163, and (6) UA196 worms treated with 2 mM dopamine and 50 µM NS163. For each condition, four biological replicates were performed, and each biological replicate consisted of four technical replicates (four wells). For each condition, the data were expressed as mean and the error bars report the s.e.m. (n = 4 independent experiments and each n consisted of a total of four technical replicates).
smiles,measurement,setting,value
NCCc1ccc(O)c(O)c1 [dopamine],"Motility of worms, UA196+Dopamine",Day 4,146 and 123 and 134 and 157
same,"Motility of worms, UA196+Dopamine",Day 5,129 and 128 and 126 and 106
same,"Motility of worms, UA196+Dopamine",Day 6,99 and 108 and 117 and 122
same,"Motility of worms, UA196+Dopamine",Day 7,108 and 102 and 112 and 99
same,"Motility of worms, UA196+Dopamine",Day 8,108 and 103 and 97 and 100
same,"Motility of worms, UA196+Dopamine",Day 9,93 and 88 and 92 and 89
same,"Motility of worms, UA196+Dopamine",Day 10,87 and 88 and 92 and 89
same,"Motility of worms, UA196+Dopamine",Day 11,75 and 62 and 83 and 87
same,"Motility of worms, UA196+Dopamine",Day 12,72 and 83 and 69 and 65
same,"Motility of worms, UA196+Dopamine",Day 13,51 and 78 and 67 and 62
same,"motility of UA196 worms treated with dopamine, in words","dopamine 2 mM, day two and four",much higher motility
